Data: patent US9023821B2, “Use of MicroRNA for treating diseases associated with a dysfunction of the cilia in multiciliated epithelial cells” (Centre National de la Recherche Scientifique, priority 2009, dated 2015)

Key:
[1] = test system: human airway epithelial cells (HAECs); test: High-throughput sequencing (HTS) of miRNAs at four stages of differentiation of HAECs; details: for Modulation (ratio of the level of intensity of expression in log2 in two stages of differentiation) measured by high-throughput sequencing, D7 − D0 / Modulation (ratio of the level of intensity of expression in log2 in two stages of differentiation) measured by high-throughput sequencing, FC − D7 / Modulation (ratio of the level of intensity of expression in log2 in two stages of differentiation) measured by high-throughput sequencing, WD − D0 / Modulation (ratio of the level of intensity of expression in log2 in two stages of differentiation) measured by high-throughput sequencing, WD − FC / Level of intensity of expression in log2 measured by high-throughput sequencing, D0 / Level of intensity of expression in log2 measured by high-throughput sequencing, D7 / Level of intensity of expression in log2 measured by high-throughput sequencing, FC / Level of intensity of expression in log2 measured by high-throughput sequencing, WD: Table VI; for Level of intensity of expression in log2 At the differentiated stage (WD) measured in HTS: healthy human airway epithelial tissue; for Level of intensity of expression in log2 measured by high-throughput sequencing, D0: stage D0; for Level of intensity of expression in log2 measured by high-throughput sequencing, D7: stage D7; for Level of intensity of expression in log2 measured by high-throughput sequencing, FC: stage FC; for Level of intensity of expression in log2 At the differentiated stage (WD) measured in HTS / Level of intensity of expression in log2 measured by high-throughput sequencing, WD: stage WD; for Modulation (ratio of the level of intensity of expression in log2 in two stages of differentiation), D7 − D0 / Modulation (ratio of the level of intensity of expression in log2 in two stages of differentiation), FC − D7 / Modulation (ratio of the level of intensity of expression in log2 in two stages of differentiation), WD − FC / Abundance (%), D0 / Abundance (%), D7 / Abundance (%), FC / Abundance (%), WD: HTS; for Abundance (%), D0: ALI-D0; for Abundance (%), D7: ALI-D7; for Abundance (%), FC: ALI-FC; for Abundance (%), WD: ALI-WD
How it was run: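 Cells at four air-liquid interface differentiation stages were lysed and total RNA with miRNAs purified. Adaptor Mix A or B ligation (16° C, 2-16 h) allowed 5′ or 3′ end sequencing. Abundance cut-off was 1% of total miRNAs in at least one stage.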

[2] = test system: human airway epithelial cells (HAECs); test: Agilent miRNA chips, miRNA expression at four stages of differentiation of HAECs; details: for Modulation (ratio of the level of intensity of expression in log2 in two stages of differentiation) measured with the Agilent chips, D7 − D0 / Modulation (ratio of the level of intensity of expression in log2 in two stages of differentiation) measured with the Agilent chips, FC − D7 / Modulation (ratio of the level of intensity of expression in log2 in two stages of differentiation) measured with the Agilent chips, WD − D0 / Modulation (ratio of the level of intensity of expression in log2 in two stages of differentiation) measured with the Agilent chips, WD − FC / Level of intensity of expression in log2 measured with the Agilent chips, D0 / Level of intensity of expression in log2 measured with the Agilent chips, D7 / Level of intensity of expression in log2 measured with the Agilent chips, FC / Level of intensity of expression in log2 measured with the Agilent chips, WD: Table VI; for Modulation (ratio of the level of intensity of expression in log2 at two stages of differentiation), FC − D7 / Modulation (ratio of the level of intensity of expression in log2 at two stages of differentiation), WD − FC: Agilent miRNA chips, Table V; for Level of intensity of expression in log2 measured with the Agilent chips, D0: stage D0; for Level of intensity of expression in log2 measured with the Agilent chips, D7: stage D7; for Level of intensity of expression in log2 measured with the Agilent chips, FC: stage FC; for Level of intensity of expression in log2 measured with the Agilent chips, WD: stage WD
How it was run: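 RNA from the same patients' HAECs at four differentiation stages was labelled and hybridized with the Agilent miRNA labeling and hybridization kit. Chips were Human miRNA Microarray v2, with 866 human and 89 viral miRNAs (miRBase v12.0). Profiles were compared with high-throughput sequencing data.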

[3] = test system: basal cells and pyramidal cells of the airway epithelium; test: miRNA expression in sorted basal cells versus pyramidal cells (ciliated + secretory), HTS and Agilent chips; parameters: species or system human; details: for Modulation of expression of the miRNAs in pyramidal cells (323(−)) relative to basal cells 323(+): HTS and Agilent chips; for Intensity of the level of expression in log2 in pyramidal cells (323(−)): pyramidal cells (ciliated + secretory)
How it was run: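 Read-out is miRNA profiling of total RNA, by Agilent chips or by high-throughput sequencing, in two sorted populations. These were basal cells (CD151+/TF+) and pyramidal ciliated/secretory cells (CD151−/TF−) from airway epithelium of 3 donors.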

Row | Substance | Modulation (ratio of the level of intensity of expression in log2 in two stages of differentiation) measured by high-throughput sequencing, D7 − D0 [1] | Modulation (ratio of the level of intensity of expression in log2 in two stages of differentiation) measured by high-throughput sequencing, FC − D7 [1] | Modulation (ratio of the level of intensity of expression in log2 in two stages of differentiation) measured by high-throughput sequencing, WD − D0 [1] | Modulation (ratio of the level of intensity of expression in log2 in two stages of differentiation) measured by high-throughput sequencing, WD − FC [1] | Level of intensity of expression in log2 At the differentiated stage (WD) measured in HTS [1] | Level of intensity of expression in log2 measured by high-throughput sequencing, D0 [1] | Level of intensity of expression in log2 measured by high-throughput sequencing, D7 [1] | Level of intensity of expression in log2 measured by high-throughput sequencing, FC [1] | Level of intensity of expression in log2 measured by high-throughput sequencing, WD [1] | Modulation (ratio of the level of intensity of expression in log2 in two stages of differentiation) measured with the Agilent chips, D7 − D0 [2] | Modulation (ratio of the level of intensity of expression in log2 in two stages of differentiation) measured with the Agilent chips, FC − D7 [2] | Modulation (ratio of the level of intensity of expression in log2 in two stages of differentiation) measured with the Agilent chips, WD − D0 [2] | Modulation (ratio of the level of intensity of expression in log2 in two stages of differentiation) measured with the Agilent chips, WD − FC [2] | Level of intensity of expression in log2 measured with the Agilent chips, D0 [2] | Level of intensity of expression in log2 measured with the Agilent chips, D7 [2] | Level of intensity of expression in log2 measured with the Agilent chips, FC [2] | Level of intensity of expression in log2 measured with the Agilent chips, WD [2] | Modulation of expression of the miRNAs in pyramidal cells (323(−)) relative to basal cells 323(+) [3] | Intensity of the level of expression in log2 in basal cells (323(+)) [3] | Intensity of the level of expression in log2 in pyramidal cells (323(−)) [3] | further results
1 | hsa-miR-27b: human miRNA, SEQ ID No. 30 (UUCACAGUGGCUAAGUUCUGC; expressed or natural sequence; listed as Homo sapiens) | 0.64 log2 | −0.69 log2 | −0.11 log2 | −0.06 log2 | 14.81 log2 | 6.92 log2 | 7.57 log2 | 6.88 log2 | 6.81 log2 | 1.77 log2 | −0.47 log2 | 1.36 log2 | 0.05 log2 | 9.26 log2 | 11.03 log2 | 10.57 log2 | 10.62 log2 | −3.56 | 9.77 log2 | 6.21 log2 | Modulation (ratio of the level of intensity of expression in log2 at two stages of differentiation), FC − D7 [2]: −0.47 log2; Modulation (ratio of the level of intensity of expression in log2 at two stages of differentiation), WD − FC [2]: 0.05 log2
2 | hsa-miR-29a: human miRNA, SEQ ID No. 31 (UAGCACCAUCUGAAAUCGGUUA; expressed or natural sequence; listed as Homo sapiens) | −1.34 log2 | −0.11 log2 | −1.43 log2 | 0.02 log2 | 14.53 log2 | 16.24 log2 | 14.90 log2 | 14.79 log2 | 14.81 log2 | 0.17 log2 | −0.71 log2 | −0.38 log2 | 0.16 log2 | 11.23 log2 | 11.40 log2 | 10.69 log2 | 10.85 log2 | −2.95 | 11.09 log2 | 8.14 log2 | Modulation (ratio of the level of intensity of expression in log2 in two stages of differentiation), D7 − D0 [1]: −1.34 log2; Modulation (ratio of the level of intensity of expression in log2 in two stages of differentiation), FC − D7 [1]: −0.11 log2; Modulation (ratio of the level of intensity of expression in log2 in two stages of differentiation), WD − FC [1]: 0.02 log2; Abundance (%), D0 [1]: 17.01%; Abundance (%), D7 [1]: 6.72%; Abundance (%), FC [1]: 6.02%; Abundance (%), WD [1]: 4.64%
3 | hsa-miR-29c: human miRNA, SEQ ID No. 32 (UAGCACCAUUUGAAAUCGGUUA; expressed or natural sequence; listed as Homo sapiens) | 0.82 log2 | 0.02 log2 | 0.87 log2 | 0.03 log2 | 9.74 log2 | 13.66 log2 | 14.48 log2 | 14.50 log2 | 14.53 log2 | 1.61 log2 | −0.28 log2 | 1.57 log2 | 0.24 log2 | 9.04 log2 | 10.66 log2 | 10.38 log2 | 10.62 log2 | −3.06 | 11.06 log2 | 8.00 log2 | Modulation (ratio of the level of intensity of expression in log2 in two stages of differentiation), D7 − D0 [1]: 0.82 log2; Modulation (ratio of the level of intensity of expression in log2 in two stages of differentiation), FC − D7 [1]: 0.02 log2; Modulation (ratio of the level of intensity of expression in log2 in two stages of differentiation), WD − FC [1]: 0.03 log2; Abundance (%), D0 [1]: 2.84%; Abundance (%), D7 [1]: 5.03%; Abundance (%), FC [1]: 4.95%; Abundance (%), WD [1]: 3.82%; Modulation (ratio of the level of intensity of expression in log2 at two stages of differentiation), FC − D7 [2]: −0.28 log2; Modulation (ratio of the level of intensity of expression in log2 at two stages of differentiation), WD − FC [2]: 0.24 log2
